Data reported in paper PMC11878259 (2025).

What was measured:
[1] = tested on: Cy5-labeled eBroccoli (RNA, aptamer) GCCCGGAUAGCUCAGUCGGUAGAGCAGCGGAGACGGUCGGGUCCAGAUAGUAGUAUCUGUCGAGUUGAGUGUGGGCUCCGCGGGUCCAGGGUUCAAGUCCCUGUUCGGGCGCCA; assay: fluorescence imaging in RNA-peptide condensates; conditions: 100 mM K+, 1 mM Mg2+; 40 mM Tris pH 7.5, room temperature; 5 µM RNA; rU22 or rA22 with [RGRGG]5 or R10
[2] = tested on: U50G, C52A, A66U (eBroccoli) (RNA, aptamer) GCCCGGAUAGCUCAGUCGGUAGAGCAGCGGAGACGGUCGGGUCCAGAUAGUAGUAUCUGUCGAGUUGAGUGUGGGCUCCGCGGGUCCAGGGUUCAAGUCCCUGUUCGGGCGCCA; assay: fluorescence light-up, microplate; conditions: 0.5 mM K+, 10 mM Na+, 0.2 mM Mg2+, 0.1 mM Ca2+; 20 mM Tris pH 7.5; 25, 37, 45 °C; 0.5 µM RNA, 10 µM compound
[3] = tested on: Cy5-labeled Broccoli (RNA, aptamer) GCCCGGAUAGCUCAGUCGGUAGAGCAGCGGAGACGGUCGGGUCCAGAUAUUCGUAUCUGUCGAGUAGAGUGUGGGCUCCGCGGGUCCAGGGUUCAAGUCCCUGUUCGGGCGCCA; assay: fluorescence imaging in RNA-peptide condensates; conditions: 100 mM K+, 1 mM Mg2+; 40 mM Tris pH 7.5, room temperature; 5 µM RNA; rU22 or rA22 with [RGRGG]5 or R10

- binding [1]: yes
- binding [2]: yes
- binding [3]: yes
SMILES: CC1=N/C(=C\c2cc(F)c(O)c(F)c2)C(=O)N1CC(F)(F)F
